The test system of one experiment is WM266.4. The experiment in a line: Inhibition of cell growth, sulphorhodamine B staining. It counts as cell-based, human. The conditions noted are these: WM266.4 melanoma cells (BRAF V599D). In general terms: The SRB assay estimates cell density from bound dye.
The test system of a further experiment is Colo 829. The description is as above. It counts as cell-based, human. The conditions noted are these: Colo 829 melanoma cells (BRAF V599E). On the procedure:
(§1) Colo 829 cells are a melanoma cell line that harbours a V599E mutation in the BRAF gene and BE cells are a colorectal line that harbour a G463 mutation in the BRAF gene (Davies et al., 2002). As we have shown, both of these mutations are activating (Davies et al., 2002). Finally, we tested the effects of these inhibitors on DNA synthesis.
(§2) Cell lines were incubated in the presence of increasing levels of BAY 43-9006 and the levels of cell growth were determined by sulphorhodamine B staining. The IC50 values were determined by non-linear regression analysis and are indicated.

The test system of another experiment is BE. Described as above. It counts as cell-based, human. The conditions noted are these: BE colorectal cells (BRAF G463 mutation). On the procedure: as §1, §2
Experiment [1] relates to ERK activity in WM266.4 cells. Kind of experiment: Active ERK levels by Western blot with ppERK antibody. It is filed as cell-based, human. Particulars: 10 μM compound. Here is the method:
WM266.4 or A375P cells were treated with 10 μM U0126, 10 μM BAY 43-9006 or DMSO as a control. Equivalent amounts of cellular proteins were resolved on SDS-gels and the levels of active ERK were determined using the ppERK antibody.
FIG. 6. Ablation of BRAF, but not CRAF blocks ERK activity in melanoma cells. WM-266.4 or Colo 829 cells were treated with a BRAF specific siRNA probe (BRAF), or the scrambled control (sBRAF), or a CRAF specific probe (CRAF), or its scrambled control (sCRAF), or oligofectamine (oligo) or left untreated (control) as indicated. The cells were incubated for the times indicated, and the Colo 829 cells were treated for 24hours. The levels of ERK activity in equivalent amounts of cell extract was determined by Western blotting with the ppERK antibody.
In order to validate BRAF as a target in cancer, it is first tested whether the growth of cells that express activated, mutant forms of BRAF required the RAF-MEK-ERK signaling pathway for growth. To this end, melanoma and colorectal cell lines that harbour mutations in the BRAF gene are treated with pharmacological agents that block signaling through this pathway. Two compounds are tested. One is the compound U0126, which is a MEK inhibitor and which therefore uncouples RAF-ERK signaling in cells (Sebolt-Leopold et al., 1999). BAY 43-9006 os also tested. This is an inhibitor of RAF proteins (Lyons et al., 2001). […]
(In general: A western blot detects proteins with antibodies after separation by electrophoresis.)

Experiment [2] concerns WM-266.4 cells. The experiment in a line: DNA synthesis, [3H]-thymidine incorporation. It counts as cell-based, human. The conditions noted are these: 10 μM, 48 hours. On the procedure:
FIG. 4. Inhibition of cell growth by pharmacological agents. WM-266.4 cells were incubated in the presence of U0126 (10 μM) or BAY 43-9006 (10 μM) or the vehicle control (DMSO). After 48 hours, DNA synthesis was determined by incubating the cells with [^3H]-thymidine and the levels of thymidine incorporated into the cellular DNA was determined.
as §1
(In general: Incorporation of labelled thymidine or its analogues reports DNA synthesis.)

Experiment [3] relates to WM-266.4 cells. Kind of experiment: Cell cycle analysis by FACS (propridium iodide). The conditions noted are these: 96 hours. It is filed as cell-based, human. On the procedure: FIG. 7. Ablation of BRAF, but not CRAF induces apoptosis in melanoma cells. WM-266.4 cells were treated with a BRAF specific siRNA probe (BRAF), or the scrambled control (sBRAF), or a CRAF specific siRNA probe (CRAF), or U0126, or […] (oligo) or left untreated (control) as indicated. The cells were incubated for 96 hours and the cell cycle profile was analysed by FACS, or PARP expression was examined by Western blotting.
Finally, we examined how BRAF ablation affected cell growth, examining the effects on apoptosis in WM-266.4 cells. For these studies, the cells were fixed in 70% ethanol, stained with propridium iodide and their cell cycle profiles were examined by fluorescent activated cell sorting (FACS). Using this analysis, the apoptotic cells appear in the sub-G1 peak. In these cells, spontaneous apoptosis is very low, with less than 1% of the cell appearing in the sub-G1 peak (FIG. 7, table 5). […] We also examined PARP cleavage, a marker of the induction of apoptosis.
WM-266.4 cells were treated with U0126, DMSO, siRNA to BRAF, siRNA to CRAF or the scrambled siRNA control. The cells were incubated for 96 hours and the cells were fixed and stained with propridium iodide for cell cycle analysis by FACS. The proportion of cells in each phase of the cell cycle is shown.

Experiment [4] concerns ERK (WM-266-4/WM-115 cells). Particulars: WM-266-4/WM-115, melanoma; Ras b; B-Raf V599D.
In the next experiment the test system is ERK (A2058 cells). The conditions noted are these: A2058, melanoma; B-Raf V599E.
Another experiment relates to ERK (SK-MEL-28 cells). The conditions noted are these: SK-MEL-28, melanoma; Ras b; B-Raf V599E.
The next experiment concerns colo741. The conditions noted are these: colo741, colorectal; B-Raf V599E. From the text: (§3) The second approach is to examine the effects of the compound U0126, an inhibitor of MEK1/2, the only known substrates for B-Raf.
Another experiment concerns SK-MEL-28. The conditions noted are these: SK-MEL-28, melanoma; Ras b; B-Raf V599E.
Source text: as §3

For the next experiment, the system named is NCI-H2087. The conditions noted are these: NCI-H2087, NSCLC cell line pair; Ras onc; B-Raf L596V.
Source text: as §3

Another experiment has as its system A2058. The conditions noted are these: A2058, melanoma; B-Raf V599E.
Source text: as §3

The next experiment relates to SW620. The conditions noted are these: SW620, colorectal; Ras onc; B-Raf wt.
Source text: as §3

The next experiment has as its system Mawi. The conditions noted are these: colorectal, Ras wt, B-Raf V599E.
Source text: as §3

Another experiment deals with WM-266-4/WM-115. Particulars: WM-266-4/WM-115, melanoma; Ras b; B-Raf V599D.
Source text: as §3

The test system of a further experiment is CHL. Particulars: melanoma, B-Raf wt.
Source text: as §3

For another experiment, the system named is ERK (NCI-H2087 cells). The conditions noted are these: NCI-H2087, NSCLC cell line pair; Ras onc; B-Raf L596V.
Another experiment has as its system ERK (colo741 cells). The conditions noted are these: colo741, colorectal; B-Raf V599E.
For a further experiment, the system named is ERK (Mawi cells). The conditions noted are these: colorectal, Ras wt, B-Raf V599E.
The subject of another experiment is ERK (CHL cells). Particulars: melanoma, B-Raf wt.
Another experiment concerns the target cellular Ras. The experiment in a line: cell-based or functional assay.

For `CNC(=O)c1cc(Oc2ccc(NC(=O)Nc3ccc(Cl)c(C(F)(F)F)c3)cc2)ccn1` [BAY 43-9006], the half-maximal inhibitory concentration (IC50) is 6.1 µM with WM266.4, roughly 6.1 µM with WM266.4 (listed as BAY 43-9002), 5.1 µM in the experiment on Colo 829 and 5.4 µM in the experiment with BE. The “IC50, inhibition of cell growth” value with Colo 829 and with BE was “low micro-molar range” each time. Further, in [1], the “ERK activity (ppERK Western blot)” value was “strongly suppressed”. Besides, the “DNA synthesis ([3H]-thymidine incorporation)” value in the experiment with WM-266.4 cells [2] is listed as “strongly suppressed”.
On to `N#CC(=C(/N)Sc1ccccc1N)/C(C#N)=C(\N)Sc1ccccc1N` [U0126], for which the “Proportion of events, G1” value in the experiment with WM-266.4 cells [3] worked out at 87.5%. In addition, the “Proportion of events, G2/M” value in the experiment on WM-266.4 cells [3] came to 7.8%. Further, the “Proportion of events, S” value in the experiment with WM-266.4 cells [3] is reported as 1.3%. Moreover, the “Proportion of events, Sub-G1” value with WM-266.4 cells [3] (sub-G1 = apoptotic cells) is recorded as roughly 3.5%. Further, the UO/ERK-inhib in experiment [4] is given as greater than 90%; in the experiment with ERK (A2058 cells), 80%; in the experiment with ERK (SK-MEL-28 cells), greater than 90%; in the experiment on ERK (NCI-H2087 cells) it was greater than 90%; in the experiment with ERK (colo741 cells), 90%; in the experiment on ERK (Mawi cells), greater than 90%. This compound showed a UO/ERK-inhib in the experiment with ERK (CHL cells) greater than 90%. In addition, the “ERK activity (ppERK Western blot)” value in [1] is recorded as “strongly suppressed”. Besides, the “U0 inhibit S” value with colo741 turned out to be 76%; in the experiment on SK-MEL-28 it was 98%; in the experiment with NCI-H2087, 56%; in the experiment with A2058, 68%; in the experiment with SW620, 92%; in the experiment on Mawi it was 80%. Further, the results for the “U0 inhibit S” value with WM-266-4/WM-115 and with CHL were greater than 99% and 51%, respectively. The “DNA synthesis ([3H]-thymidine incorporation)” value in the experiment with WM-266.4 cells [2] is given as “strongly suppressed”.
In the experiment with cellular Ras, monoclonal antibody Y13-259 yielded an inhibition of growth (percentage of cells that do not incorporate BrdU) after micro-injection of Y13-259; A2058, melanoma, Ras not given, B-Raf V599E of 0%; an inhibition of growth (percentage of cells that do not incorporate BrdU) after micro-injection of Y13-259; CaCO2, colorectal, Ras wt, B-Raf wt of 60%; an inhibition of growth (percentage of cells that do not incorporate BrdU) after micro-injection of Y13-259; DLD1, colorectal, Ras K13Asp/wt, B-Raf wt of 40%; an inhibition of growth (percentage of cells that do not incorporate BrdU) after micro-injection of Y13-259; HCT-116, colorectal, Ras K13 Asp, B-Raf wt of 95%. In the experiment with cellular Ras, this compound showed an inhibition of growth (percentage of cells that do not incorporate BrdU) after micro-injection of Y13-259; HMV11-Riken, melanoma, Ras not given, B-Raf wt of 100%; an inhibition of growth (percentage of cells that do not incorporate BrdU) after micro-injection of Y13-259; HT29, colorectal, Ras wt, B-Raf V599E of 15%; an inhibition of growth (percentage of cells that do not incorporate BrdU) after micro-injection of Y13-259; JW2, colorectal, Ras K12, B-Raf wt of 79%; an inhibition of growth (percentage of cells that do not incorporate BrdU) after micro-injection of Y13-259; LS174T, colorectal, Ras K12Asp/wt, B-Raf wt of 84%. Moreover, in the experiment with cellular Ras, the inhibition of growth (percentage of cells that do not incorporate BrdU) after micro-injection of Y13-259; LS411N, colorectal, Ras not given, B-Raf V599E (first value) amounted to 0%; the inhibition of growth (percentage of cells that do not incorporate BrdU) after micro-injection of Y13-259; LS411N, colorectal, Ras not given, B-Raf V599E (second value) amounted to 0%; the inhibition of growth (percentage of cells that do not incorporate BrdU) after micro-injection of Y13-259; Malme, melanoma, Ras not given, B-Raf V599E stood at 0%; the inhibition of growth (percentage of cells that do not incorporate BrdU) after micro-injection of Y13-259; Mawi, colorectal, Ras wt, B-Raf V599E is 5%. In the experiment with cellular Ras, this compound displayed an inhibition of growth (percentage of cells that do not incorporate BrdU) after micro-injection of Y13-259; NCI-H2087, NSCLC cell line pair, Ras onc, B-Raf L596V of 77%; an inhibition of growth (percentage of cells that do not incorporate BrdU) after micro-injection of Y13-259; SK-MEL-28, melanoma, Ras 'b', B-Raf V599E of 4%; an inhibition of growth (percentage of cells that do not incorporate BrdU) after micro-injection of Y13-259; SK-Mel2, melanoma, Ras not given, B-Raf wt of 70%; an inhibition of growth (percentage of cells that do not incorporate BrdU) after micro-injection of Y13-259; SW480, colorectal, Ras K12, B-Raf wt of 57%. In the experiment with cellular Ras, the inhibition of growth (percentage of cells that do not incorporate BrdU) after micro-injection of Y13-259; SW620, colorectal, Ras onc, B-Raf wt turned out to be 92%; the inhibition of growth (percentage of cells that do not incorporate BrdU) after micro-injection of Y13-259; WM-266-4/WM-115, melanoma, Ras 'b', B-Raf V599D came out at 10%; the inhibition of growth (percentage of cells that do not incorporate BrdU) after micro-injection of Y13-259; colo205, colorectal, Ras wt, B-Raf V599E is 3%; the inhibition of growth (percentage of cells that do not incorporate BrdU) after micro-injection of Y13-259; colo741, colorectal, Ras not given, B-Raf V599E was determined as 0%.

For orientation: IC50 means the concentration that gives 50% inhibition. Low readings indicate higher potency, high ones lower potency.

These data come from patent publication US20040096855A1, “Genes” (priority 2001, published 2004).
